In ChEMBL document CHEMBL1129675, “New directions in antibacterial research” (1996) one finds Activity, MIC90 and MIC data, which are given here for nine compounds.

For one assay, the system named is Pseudomonas aeruginosa. The assay can be described thus: Antibacterial activity against Pseudomonas aeruginosa was determined; Active. It is filed as functional, organism-based.
The next assay concerns Enterococcus. The experiment in a line: Inhibitory activity against Vancomycin resistant enterococci. The assay is classed as functional.
Assay [1] is described as follows: Inhibitory activity against Lactobacillus species. It is filed as functional. The conditions noted are these: Bacteria.
The nature of assay [2]: Inhibitory activity against Leuconostoc species. The assay is classed as functional.
Assay [3] can be described thus: Inhibitory activity against Pediococcus species. It is filed as functional.
Another assay relates to Bacteroides fragilis. The experiment in a line: Inhibitory activity against Bacteroides fragilis. It is filed as functional.
Another assay deals with Bacteria. The experiment in a line: Inhibitory activity against Corynebacterium. The assay is classed as functional.
Another assay deals with Enterococcus faecium. The experiment in a line: Inhibitory activity against Enterococcus faecium. It is filed as functional.
The test system of a further assay is Haemophilus influenzae. The experiment in a line: Inhibitory activity against Haemophilus influenzae. The assay is classed as functional.
A further assay relates to Moraxella catarrhalis. The assay can be described thus: Inhibitory activity against Moraxella catarrhalis. The assay is classed as functional.
The test system of assay [4] is Staphylococcus epidermidis. The experiment in a line: Inhibitory activity against methicillin-resistant Staphylococcus epidermidis (MRSE). The assay is classed as functional.
The subject of assay [5] is Staphylococcus epidermidis. The experiment in a line: Inhibitory activity against methicillin-sensitive Staphylococcus epidermidis (MSSE). The assay is classed as functional.
Assay [6] relates to Staphylococcus aureus. The experiment in a line: Inhibitory activity against MRSA. It is filed as functional.
The subject of assay [7] is Staphylococcus aureus. The assay can be described thus: Inhibitory activity against MSSA. It is filed as functional.
Another assay relates to Streptococcus pyogenes. The experiment in a line: Inhibitory activity against Streptococcus pyogenes. The assay is classed as functional.
In a further assay the test system is Streptococcus pneumoniae. The assay can be described thus: Inhibitory activity against Streptococcus pneumoniae. The assay is classed as functional.
Assay [8] can be described thus: Inhibitory activity against many clinical relevent pathogen; Range is 5-50 ug/mL. The assay is classed as functional.

Converted amounts (≈) assume the structure as drawn. The source made the active and inactive calls. No cut-off for these calls is given here. Starred links: 1 amine or outer side, 2 acyl side, 3 side chain; linkers in the order of their positions; H or OH if unused. Positions of bridges follow the written chain, without caps; N, C: chain ends. Non-standard residues stand in square brackets, D forms with d. Residues, ends and D or L forms follow the SMILES beside them. X1 = O=C([C@@H](N[*:1])c1ccc(O[C@H]2OC(CO)[C@@H](O)[C@@H](O)[C@@H]2O[C@H]2O[C@@H](CO)[C@@H](O)[C@H](O)[C@H]2O)cc1)[*:2]; X4 = CC(C)CC/C=C\C=C/C(=O)NC(CC(N)=O)C(=O)CC(C(=O)[*:1])C(O[*:2])C(N)=O; X2 = CC(C)C/C=C\C=C/C(=O)NC(CC(N)=O)C(=O)CC(C(=O)[*:1])C(O[*:2])C(N)=O; X3 = CCC/C=C\C=C/C(=O)NC(CC(N)=O)C(=O)CC(C(=O)[*:1])C(O[*:2])C(N)=O; Hpg(3-Cl) = N[C@H](C(=O)O)c1ccc(O)c(Cl)c1; Hpg = N[C@H](C(=O)O)c1ccc(O)cc1; Orn = NCCC[C@H](N)C(=O)O

With `Cc1nc(SCC2=C(C(=O)O)N3C(=O)[C@@H](NC(=O)/C(=N\OCc4cc(=O)c(O)cn4O)c4csc(N)n4)[C@H]3CS2)sc1C(=O)O`, the result in the assay with Pseudomonas aeruginosa was Active.

Consider `CC(C)C/C=C\C=C/C(=O)NC(CC(N)=O)C(=O)CC1C(=O)N[C@@H](c2ccc(O)cc2)C(=O)N[C@@H](CCCN)C(=O)N[C@@H]([C@@H](C)O)C(=O)N[C@@H](c2ccc(O)cc2)C(=O)N[C@@H](c2ccc(O)cc2)C(=O)N[C@@H]([C@@H](C)O)C(=O)N[C@@H](Cc2ccccc2)C(=O)N[C@@H](CCCN)C(=O)N[C@@H](c2ccc(O[C@H]3OC(CO)[C@@H](O)[C@@H](O)[C@@H]3O[C@H]3O[C@@H](CO)[C@@H](O)[C@H](O)[C@H]3O)cc2)C(=O)N[C@@H]([C@@H](C)O)C(=O)N[C@@H](c2ccc(O)cc2)C(=O)NCC(=O)N[C@@H](CC(C)C)C(=O)N[C@@H](C)C(=O)N[C@@H](c2ccc(O)c(Cl)c2)C(=O)OC1C(N)=O` (stereo partly drawn) ([Hpg][Orn]T[Hpg][Hpg]TF[Orn][X1]T[Hpg]GLA[Hpg(3-Cl)]; linker N-C via X2), for which the MIC90 against Enterococcus is 0.5 µg/mL (≈ 0.196 µM); in assay [1], no more than 0.25 µg/mL; in assay [2] it was no more than 0.25 µg/mL; in assay [3] it was no more than 0.25 µg/mL.

Take `CCC/C=C\C=C/C(=O)NC(CC(N)=O)C(=O)CC1C(=O)N[C@@H](c2ccc(O)cc2)C(=O)N[C@@H](CCCN)C(=O)N[C@@H]([C@@H](C)O)C(=O)N[C@@H](c2ccc(O)cc2)C(=O)N[C@@H](c2ccc(O)cc2)C(=O)N[C@@H]([C@@H](C)O)C(=O)N[C@@H](Cc2ccccc2)C(=O)N[C@@H](CCCN)C(=O)N[C@@H](c2ccc(O[C@H]3OC(CO)[C@@H](O)[C@@H](O)[C@@H]3O[C@H]3O[C@@H](CO)[C@@H](O)[C@H](O)[C@H]3O)cc2)C(=O)N[C@@H]([C@@H](C)O)C(=O)N[C@@H](c2ccc(O)cc2)C(=O)NCC(=O)N[C@@H](CC(C)C)C(=O)N[C@@H](C)C(=O)N[C@@H](c2ccc(O)c(Cl)c2)C(=O)OC1C(N)=O` (stereo partly drawn) ([Hpg][Orn]T[Hpg][Hpg]TF[Orn][X1]T[Hpg]GLA[Hpg(3-Cl)]; linker N-C via X3): the MIC90 against Enterococcus is 0.5 µg/mL (≈ 0.197 µM); in assay [1], no more than 0.25 µg/mL; in assay [2] it was no more than 0.25 µg/mL; in assay [3] it was no more than 0.25 µg/mL.

Consider `CC(C)CC/C=C\C=C/C(=O)NC(CC(N)=O)C(=O)CC1C(=O)N[C@@H](c2ccc(O)cc2)C(=O)N[C@@H](CCCN)C(=O)N[C@@H]([C@@H](C)O)C(=O)N[C@@H](c2ccc(O)cc2)C(=O)N[C@@H](c2ccc(O)cc2)C(=O)N[C@@H]([C@@H](C)O)C(=O)N[C@@H](Cc2ccccc2)C(=O)N[C@@H](CCCN)C(=O)N[C@@H](c2ccc(O[C@H]3OC(CO)[C@@H](O)[C@@H](O)[C@@H]3O[C@H]3O[C@@H](CO)[C@@H](O)[C@H](O)[C@H]3O)cc2)C(=O)N[C@@H]([C@@H](C)O)C(=O)N[C@@H](c2ccc(O)cc2)C(=O)NCC(=O)N[C@@H](CC(C)C)C(=O)N[C@@H](C)C(=O)N[C@@H](c2ccc(O)c(Cl)c2)C(=O)OC1C(N)=O` (stereo partly drawn) ([Hpg][Orn]T[Hpg][Hpg]TF[Orn][X1]T[Hpg]GLA[Hpg(3-Cl)]; linker N-C via X4), for which the MIC90 against Enterococcus was 0.5 µg/mL (≈ 0.195 µM); in assay [1] it was no more than 0.25 µg/mL; in assay [2], no more than 0.25 µg/mL; in assay [3] it was no more than 0.25 µg/mL.

For the compound `CC(=O)NC[C@H]1CN(c2ccc(N3CCN(C(=O)CO)CC3)c(F)c2)C(=O)O1` [EPEREZOLID], the MIC90 was 16 µg/mL (≈ 40.6 µM) against Bacteroides fragilis; 0.5 µg/mL (≈ 1.27 µM) with Bacteria; 2 µg/mL (≈ 5.07 µM) in the assay with Enterococcus faecium; 16 µg/mL (≈ 40.6 µM) in the assay on Haemophilus influenzae; 4 µg/mL (≈ 10.1 µM) against Moraxella catarrhalis; 1 µg/mL (≈ 2.54 µM) in assay [4]. The MIC90 came out at 1 µg/mL (≈ 2.54 µM) in [5]; 4 µg/mL (≈ 10.1 µM) with Staphylococcus aureus [6]; 4 µg/mL (≈ 10.1 µM) with Staphylococcus aureus [7]; 1 µg/mL (≈ 2.54 µM) with Streptococcus pyogenes; 0.5 µg/mL (≈ 1.27 µM) against Streptococcus pneumoniae.

As for `CC(=O)NC[C@H]1CN(c2ccc(N3CCOCC3)c(F)c2)C(=O)O1` [LINEZOLID], the MIC90 in the assay on Bacteroides fragilis stood at 4 µg/mL (≈ 11.9 µM); against Bacteria, 0.5 µg/mL (≈ 1.48 µM); against Enterococcus faecium, 4 µg/mL (≈ 11.9 µM); with Haemophilus influenzae, 16 µg/mL (≈ 47.4 µM); with Moraxella catarrhalis it was 4 µg/mL (≈ 11.9 µM); in [4], 2 µg/mL (≈ 5.93 µM). Moreover, the MIC90 stood at 2 µg/mL (≈ 5.93 µM) in assay [5]; 4 µg/mL (≈ 11.9 µM) with Staphylococcus aureus [6]; 4 µg/mL (≈ 11.9 µM) with Staphylococcus aureus [7]; 2 µg/mL (≈ 5.93 µM) against Streptococcus pyogenes; 1 µg/mL (≈ 2.96 µM) with Streptococcus pneumoniae.

`CC[C@H](C)[C@H](NC(=O)CN)C(=O)NCC(=O)N[C@@H](CCCCN)C(=O)N[C@@H](Cc1ccccc1)C(=O)N[C@@H](CC(C)C)C(=O)N[C@@H](Cc1c[nH]cn1)C(=O)N[C@@H](CO)C(=O)N[C@@H](C)C(=O)N[C@@H](CCCCN)C(=O)N[C@@H](CCCCN)C(=O)N[C@@H](Cc1ccccc1)C(=O)NCC(=O)N[C@@H](CCCCN)C(=O)N[C@@H](C)C(=O)N[C@@H](Cc1ccccc1)C(=O)N[C@H](C(=O)NCC(=O)N[C@@H](CCC(=O)O)C(=O)N[C@H](C(=O)N[C@@H](CCSC)C(=O)N[C@@H](CC(N)=O)C(=O)N[C@@H](CO)C(=O)O)[C@@H](C)CC)C(C)C` [MAGAININ 2] (H-GIGKFLHSAKKFGKAFVGEIMNS-OH) had an MIC in assay [8] of 5 µg/mL (≈ 2.03 µM).

Consider `CC[C@H](C)[C@H](NC(=O)CN)C(=O)NCC(=O)N[C@@H](CCCCN)C(=O)N[C@@H](Cc1ccccc1)C(=O)N[C@@H](CC(C)C)C(=O)N[C@@H](Cc1cnc[nH]1)C(=O)N[C@@H](CO)C(=O)N[C@@H](C)C(=O)NCC(=O)N[C@@H](CCCCN)C(=O)N[C@@H](Cc1ccccc1)C(=O)NCC(=O)N[C@@H](CCCCN)C(=O)N[C@@H](C)C(=O)N[C@@H](Cc1ccccc1)C(=O)N[C@H](C(=O)NCC(=O)N[C@@H](CCC(=O)O)C(=O)N[C@H](C(=O)N[C@@H](CCSC)C(=O)N[C@@H](CCCCN)C(=O)N[C@@H](CO)C(=O)O)[C@@H](C)CC)C(C)C` [MAGAININ I] (H-GIGKFLHSAGKFGKAFVGEIMKS-OH), for which the minimum inhibitory concentration (MIC) in assay [8] is 5 µg/mL (≈ 2.07 µM).

As for `CN(C)c1ccc(O)c2c1C[C@H]1C[C@H]3[C@H](N(C)C)C(O)=C(C(N)=O)C(=O)[C@@]3(O)C(O)=C1C2=O` [MINOCYCLINE], in the assay on Staphylococcus aureus [6], the MIC90 came out at 16 µg/mL (≈ 35 µM).
